Source: patent publication US7741288B2, “Methods of screening of PP1-interacting polypeptides or proteins, peptides inhibiting PP1c binding to Bcl-2 proteins, Bcl-xL and Bcl-w, and uses thereof” (Institut Pasteur, priority 2002, dated 2010)
Each block holds one molecule with its values, some of them ahead of it.

Columns and labels:
[1] = test system: type 1 and type 2A activities; assay: In vitro phosphatase assay in supernatants of Bad and Bcl-w immunoprecipitates with okadaic acid; format: biochemical, murine; details: 10^−9 M OA
Experimental: B) Different concentrations of OA were added to Bad or Bcl-w immunoprecipitates from IL-4 stimulated cells. Phosphatase activity was estimated using ^32P phosphorylase a as substrate. The reaction was as in A. Similar results were obtained in three independent experiments. Phosphatase activity is represented as the percentage of maximal activity in untreated supernatants.
(§1) IL-4-stimulated cells (1×10^7) were lysed in lysis buffer, supernatants were immunoprecipitated with the corresponding antibody, followed by incubation with Protein A Sepharose. Immunoprecipitates were washed with phosphatase buffer (50 mM Tris HCl, pH 7.5, 0.1% 2-ME, 0.1 mM EDTA and 1 mg/ml BSA) and mixed with [^32P] phosphorylase a, diluted in phosphatase buffer supplemented with caffeine. The reaction was incubated (40 min at 30° C.), stopped with 200 μl 20% TCA and centrifuged. A total of 185 μl of the supernatant were used to estimate the generation of free phosphate liberated from [^32P] phosphorylase a.
The enzymatic activity in the immunoprecipitates was measured using ^32P-labeled phosphorylase a as substrate. It is interesting to notice that phosphatase activity detected in Bcl-xL and Bcl-w immunoprecipitates nearly corresponds to the phosphatase activity observed in Bad immunoprecipitates. […]

[2] = test system: Bad; assay: Serine 136 phosphorylation of Bad in OA-treated cells, western blot; format: cell-based, murine
Experimental: A) Cells were treated with or without 1 μM OA in the presence or the absence of IL-4. […] Protein bands were detected using ECL.
Cells (1×10^7) were IL-4-stimulated or -deprived and lysed for 20 min at 4° C. in lysis buffer (50 mM Tris HCl pH 8, 1% NP40, 137 mM NaCl, 1 mM MgCl2, 1 mM CaCl2, 10% glycerol and protease inhibitors cocktail). Digitonin or detergent free buffers were also used for immunoprecipitation. For phosphorylation analysis, the buffer was also supplemented with phosphatase inhibitors cocktail. Lysates were immunoprecipitated with the Appropriate antibody and Protein A Sepharose was added. Alliteratively, cells were lysed in Laemmli sample buffer and protein extracts separated by SDS-PAGE, transferred to nitrocellulose, blocked and incubated with primary antibody. Membrane was washed and incubated. with PO-conjugated secondary antibody. Proteins were developed using the ECL.
As IL-4-deprivation correlates with Bad dephosphorylation and apoptosis, it was hypothesized that inhibition of phosphatase activity by okadaic acid (OA) treatment may prevent Bad dephosphorylation and apoptosis. Treatment of the cells with 1 μM OA in the absence of IL-4 prevented Bad dephosphorylation at serine 136 (FIG. 9A). […] The inhibition of Bcl-xL and Bcl-w expression upon antisense oligonucleotide treatment was estimated by Western blot.

[3] = test system: TS1αβ cells; assay: Apoptosis by propidium iodide staining and flow cytometry; format: cell-based, murine; details: IL-4-deprived cells, 1 μM OA for 6 h
[4] = biological target: T1, PP1c (Mus musculus, UniProt P62137); assay: In vitro phosphatase assay in Bad or Bcl-w immunoprecipitates with okadaic acid, 32P phosphorylase a as substrate; format: biochemical, murine; design: enzymatic activity was estimated in Bad or Bcl-w immunoprecipitates from IL-4-stimulated cells; endogenous in cells; host or cells: TS1αβ murine T cell line, IL-4-stimulated; anti-Bad or anti-Bcl-w immunoprecipitates on Protein A Sepharose
Experimental: B) Different concentrations of OA were added to Bad or Bcl-w immunoprecipitates from IL-4 stimulated cells. Phosphatase activity was estimated using ^32P phosphorylase a as substrate. […] Phosphatase activity is represented as the percentage of maximal activity in untreated supernatants.
as §1
Target sequence in this assay (P62137 2-330): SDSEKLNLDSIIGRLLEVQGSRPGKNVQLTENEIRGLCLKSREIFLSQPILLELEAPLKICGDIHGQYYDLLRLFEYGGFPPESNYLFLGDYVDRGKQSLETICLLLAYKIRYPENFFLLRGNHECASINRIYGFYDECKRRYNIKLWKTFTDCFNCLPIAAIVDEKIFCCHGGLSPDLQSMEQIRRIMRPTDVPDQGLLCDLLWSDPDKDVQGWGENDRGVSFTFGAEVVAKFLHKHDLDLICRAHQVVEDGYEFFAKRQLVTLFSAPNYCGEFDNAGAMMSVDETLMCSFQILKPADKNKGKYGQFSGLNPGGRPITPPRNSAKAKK
Target sequence in this assay (P70345 2-193, further chain): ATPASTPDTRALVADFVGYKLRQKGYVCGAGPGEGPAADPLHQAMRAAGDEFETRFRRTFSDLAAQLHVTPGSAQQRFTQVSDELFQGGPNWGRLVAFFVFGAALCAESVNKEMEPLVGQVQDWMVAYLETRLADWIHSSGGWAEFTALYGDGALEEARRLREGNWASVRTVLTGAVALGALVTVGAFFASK
Target sequence in this assay (Q61337 whole entry, further chain): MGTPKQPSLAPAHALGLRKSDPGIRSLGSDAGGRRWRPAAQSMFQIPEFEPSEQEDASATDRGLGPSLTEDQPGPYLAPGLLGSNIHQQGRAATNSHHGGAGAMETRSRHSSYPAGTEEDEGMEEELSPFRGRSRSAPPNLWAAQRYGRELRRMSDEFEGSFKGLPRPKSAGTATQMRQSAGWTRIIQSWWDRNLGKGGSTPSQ
The enzymatic activity in the immunoprecipitates was measured using ^32P-labeled phosphorylase a as substrate. […] To confirm that this phosphatase activity was due to PP1c, enzymatic activity was estimated in Bad or Bcl-w immunoprecipitates from IL-4-stimulated cells in the presence of different okadaic acid (OA) concentrations (FIG. 5B). […] The effect of OA on phosphatase activity was also estimated in supernatants of Bad and Bcl-w immunoprecipitates.

[5] = biological target: T2, Bcl-xL/PP1c/Bad and Bcl-w/PP1c/Bad (Mus musculus, UniProt P62137); assay: Protein-protein interaction competition in anti-Bad immunoprecipitates, western blot; format: binding, murine; details: 1.5 mM peptide, 30 min, room temperature; anti-Bad immunoprecipitates of IL-4-stimulated cells
T2 construct: Lysates from IL-4-stimulated cells were immunoprecipitated with anti-Bad antibody and Protein A Sepharose was added; endogenous in cells; host or cells: TS1αβ murine T cell line, IL-4-stimulated; anti-Bad immunoprecipitates on Protein A Sepharose
T2 sequence (P62137 2-330 limits assumed): as the sequence (P62137 2-330) above
Experimental: A) Cytoplasmic extracts from control IL-4-stimulated cells were immunoprecipitated with anti-Bad antibody. The interaction Bcl-xL/PP1c/Bad and Bcl-w/PP1c/Bad was competed with 1.5 mM of R, R*, F or R+F peptides for 30 min at room temperature. Immunoprecipitates were washed, transferred to nitrocellulose and blotted with anti-Bad, anti-PP1c, anti-Bcl-xL and anti-Bcl-w. Similar results were obtained in two independent experiments. For sequence of peptides, see Materials and Methods or FIGS. 5A and 5B.
Cells (1×10^7) were IL-4-stimulated or -deprived and lysed for 20 min at 4° C. in lysis buffer (50 mM Tris HCl pH 8, 1% NP40, 137 mM NaCl, 1 mM MgCl2, 1 mM CaCl2, 10% glycerol and protease inhibitors cocktail). Digitonin or detergent free buffers were also used for immunoprecipitation. […]
(§2) Lysates from IL-4-stimulated cells were immunoprecipitated with anti-Bad antibody and the interaction Bcl-xL/PP1c and Bcl-w/PP1c was competed using R* (NWGRIAAAFSF) (SEQ ID NO: 8), R (NWGRIVAFFSF) (SEQ ID NO: 6) or F (GDEFELRYRRAF) (SEQ ID NO: 7) peptides (FIG. 8A). Bcl-xL, Bcl-w and PP1c were detected in control anti-Bad immunoprecipitates, as well as in anti-Bad immunoprecipitates treated with R* peptide. […] Phosphatase activity was detected in control or R* peptide-treated immunoprecipitates (FIG. 8B), decreasing upon competition of the interaction with F or R peptides. […]

[6] = biological target: T1, PP1c; assay: Phosphatase activity in peptide-treated Bad immunoprecipitates; format: biochemical, murine; design: Lysates from IL-4-stimulated cells were immunoprecipitated with anti-Bad antibody and Protein A Sepharose was added; endogenous in cells; host or cells: TS1αβ murine T cell line, IL-4-stimulated; anti-Bad immunoprecipitates on Protein A Sepharose; details: 1.5 mM peptide, 30 min, room temperature
Experimental: B) Cytoplasmic lysates from IL-4-stimulated cells were immunoprecipitated with anti-Bad antibody. Immunoprecipitates were treated with 1.5 mM of R, R*, F or R+F peptides for 30 min at room temperature. Immunoprecipitates were washed and phosphatase activity estimated using ^32P phosphorylase a as substrate. Similar results were obtained in two independent experiments.
C) Cytoplasmic lysates from IL-4-stimulated cells were immunoprecipitated with anti-Bad antibody and then treated with 1.5 mM of R+F peptide or 3 mM of R or F peptide (30 min, room temperature). Immunoprecipitates were washed and phosphatase activity estimated as in B.
IL-4-stimulated cells (1×10^7) were lysed in lysis buffer, supernatants were immunoprecipitated with the corresponding antibody, followed by incubation with Protein A Sepharose. […]
as §2
Target sequence in this assay (P62137 2-330 limits assumed): as the sequence (P62137 2-330) above

[7] = biological target: T3, PP1c (Homo sapiens, UniProt P62136); assay: PP1c binding assay on cellulose-bound Bcl-xL or Bcl-w peptides; details: membrane-immobilized peptides, anti-PP1c antibody, ECL
T3 construct: purchased Calbiochem
T3 sequence (P62136 whole entry): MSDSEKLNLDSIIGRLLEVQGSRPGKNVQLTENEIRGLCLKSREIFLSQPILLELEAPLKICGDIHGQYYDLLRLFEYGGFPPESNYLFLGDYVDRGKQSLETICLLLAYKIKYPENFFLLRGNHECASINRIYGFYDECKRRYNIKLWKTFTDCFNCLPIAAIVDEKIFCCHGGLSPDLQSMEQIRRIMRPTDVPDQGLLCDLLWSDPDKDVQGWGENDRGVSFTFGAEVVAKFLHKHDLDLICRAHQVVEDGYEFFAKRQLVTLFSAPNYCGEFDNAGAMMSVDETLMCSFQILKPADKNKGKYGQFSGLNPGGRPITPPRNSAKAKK
Excerpt: Spots were detected using ECL system. […] Mutated amino acids into the motif are in bold and underlined. Similar results were obtained in two independent experiments. Peptide 1 corresponds to the PP1 binding motif of Bcl-xL and Bcl-w. Peptide 2 corresponds to the mutated PP1 binding site were V and F residues were mutated to A. FIG. 5b contains the following sequences: NWGRIVAFFSFG (SEQ ID NO: 6), NWGRIAAAFSFG (SEQ ID NO: 51): GDEFELRYRRAF (SEQ ID NO: 7). GDEGELGYGRAF (SEQ ID NO: 59): GDESELSYSRAF (SEQ ID NO: 54). GDEFELGYGRAF (SEQ ID NO: 55): GDEFELSYSRAF (SEQ ID NO: 56). GDEGELRYRRAF (SEQ ID NO: 57): GDEGELRYRRAF (SEQ ID NO: 58): GDEGELGYRRAF (SEQ ID NO: 59). GDESELSYRRAF (SEQ ID NO: 60). PNWGRLVAFFVFG (SEQ ID NO: 61): PNWGRLAAAFVFG (SEQ ID NO: 62). GDEFETRFRRTFS (SEQ ID NO: 63): GDEFETGFGRTFS (SEQ ID NO: 64). GDEFETGFGRTFS (SEQ ID NO: 65), GDEFETRFGRTFS (SEQ ID NO: 66). GDEGETGFRRTFS (SEQ ID NO: 67). GDEGETRFRRTFS (SEQ ID NO: 68). FIG. 5a contains the following sequences FSRRYR (SEQ ID NO: 5). FTARGR (SEQ ID NO: 5). FELRYR (SEQ ID NO: 5). FETRFR (SEQ ID NO: 5).
Membrane was blocked, incubated with purified PP1c and, after several washing steps, incubated with anti-PP1c antibody, followed by PO-conjugated secondary antibody. Spots were developed using the ECL system.
It has been described that R/K X V/I X F motif is shared by most of the PP1c targeting subunits (21, 23). […]

Molecule: C=C1[C@@H](O)[C@@H]2O[C@]3(CC[C@H](/C=C/[C@@H](C)[C@@H]4CC(C)=C[C@@]5(O[C@H](C[C@@](C)(O)C(=O)O)CC[C@H]5O)O4)O3)CC[C@H]2O[C@@H]1[C@@H](O)C[C@H](C)[C@H]1O[C@@]2(CCCCO2)CC[C@H]1C [OA, okadaic acid]
inhibition of phosphatase activity in the supernatant [1]: ~50% | Bad dephosphorylation at serine 136 ([2]; 1 μM OA in the absence of IL-4): prevented | total Bad expression ([2]; after OA treatment (1 μM)): No changes | fraction of apoptotic cells compared with untreated cells [3]: significant reduction | phosphatase activity ([4]; 10^−6 M OA, Bcl-w or Bad immunoprecipitates): strongly reduced | inhibition at 0.01 µM ([4]; 10^−8 M OA, Bcl-w or Bad immunoprecipitates): ~50% | effect on Bad- or Bcl-w-associated phosphatase activity in vitro ([4]; 10^−9 M OA, Bad or Bcl-w immunoprecipitates from IL-4-stimulated cells): no effect

amount of Bcl-xL, Bcl-w and PP1c associated to Bad after competition [5]: decreases | phosphatase activity in peptide-treated Bad immunoprecipitates [6]: decreasing
Molecule: GDEFELRYRRAF [F peptide]

binding to purified PP1c [7]: interacts with PP1c
Molecule: FELRYR

binding to purified PP1c [7]: interacts with PP1c
Molecule: FETRFR
